12 molecules from patent US11236055B2 (Venenum Biodesign, LLC, priority 2016, dated 2022) can be followed below.

Assay [1] has as its target T1, human TGR5 receptor (Homo sapiens, UniProt Q8TDU6).
T1 construct: host or cells: CHO-K1 (hTGR5-CHO cells)
T1 sequence (Q8TDU6 1-330): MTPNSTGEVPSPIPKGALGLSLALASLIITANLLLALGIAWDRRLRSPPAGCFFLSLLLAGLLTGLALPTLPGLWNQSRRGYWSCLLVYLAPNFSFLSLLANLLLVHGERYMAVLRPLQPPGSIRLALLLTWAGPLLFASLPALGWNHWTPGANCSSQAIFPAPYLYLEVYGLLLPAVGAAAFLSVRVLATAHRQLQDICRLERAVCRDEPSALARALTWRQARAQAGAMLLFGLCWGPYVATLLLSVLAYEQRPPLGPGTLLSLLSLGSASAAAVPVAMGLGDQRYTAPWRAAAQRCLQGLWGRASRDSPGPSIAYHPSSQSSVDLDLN
The experiment in a line: Human TGR5 cAMP production assay. Format: cell-based. Particulars: human TGR5, luminescent cAMP assay; coded A-D; read-out: Human TGR5 Lum. cAMP Activity (EC50). On the procedure: Human TGR5 cAMP Production Assay
We evaluated the Compounds of the present invention for their ability to induce cAMP production using CHO-K1 cells overexpressing the human TGR5 receptor. CHO-K1 cells stably expressing human TGR5 receptor (accession number NM_001077194.1 (hTGR5) (i.e., hTGR5-CHO cells) were purchased from DiscoveRx Corporation (Fremont, Calif.). hTGR5-CHO cells were grown in Ham's F-12 media supplemented with 10% Fetal Bovine Serum, 1% Penicillin-Streptomycin, 2 mM L-Alanine L-Glutamine (Glutamax), and 800 μg/mL Geneticin selection. The cAMP production assay was performed using DiscoveRx's cAMP XS+ kit (Catalog No. 90-0075XL) following the manufacturer's recommended protocol. Briefly, hTGR5-CHO cells were harvested using non-enzymatic cell dissociation buffer (Sigma-Aldrich, St. Louis, Mo.) and 1×10^6 cells were combined in Phosphate-Buffered Saline (PBS) to a final volume of 496 μL to which 4 μL of 125 mM IBMX (Sigma-Aldrich, St. Louis, Mo.) was added. 500 μL of cAMP antibody solution was added to the harvested cells and incubated at room temperature for 20 min.
Test compounds were serially diluted (half-log dilutions) in DMSO and then further diluted 1:50 in PBS, 10 mM HEPES buffer. 2 μL of serially diluted compound was added to a 384-well low volume plate (Greiner; cat #784075) and centrifuged briefly. 2 μL of the cell/cAMP antibody mixture was then added to each compound-containing well and allowed to incubate at room temperature for one hour. Following incubation, the XS+ kits' ED/Lysis/CL Substrate Working Solution was prepared following the manufacturer's recommended protocol and 4 μL was added to each well of the plate. The plate was then incubated for one hour at room temperature. Following incubation, 4 μL of Enzyme Acceptor reagent was added to the plate and allowed to incubate overnight at room temperature. Luminescent signal was then detected using the Viewlux instrument (Perkin-Elmer, Waltham, Mass.).
(§1) In Table 33, EC50 values for both human and mouse cells were determined according to the TGR5 cAMP assays described above.
On the technique in general: Changes in cAMP serve as a functional read-out for many G protein-coupled receptors.

Assay [2] concerns the target T2, mouse TGR5 receptor (Mus musculus, UniProt Q80SS6).
T2 construct: expressed in transfected cells; host or cells: HEK293-EBNA (293 c18, ATCC CRL10852), Hygromycin B selection
T2 sequence (Q80SS6 1-329): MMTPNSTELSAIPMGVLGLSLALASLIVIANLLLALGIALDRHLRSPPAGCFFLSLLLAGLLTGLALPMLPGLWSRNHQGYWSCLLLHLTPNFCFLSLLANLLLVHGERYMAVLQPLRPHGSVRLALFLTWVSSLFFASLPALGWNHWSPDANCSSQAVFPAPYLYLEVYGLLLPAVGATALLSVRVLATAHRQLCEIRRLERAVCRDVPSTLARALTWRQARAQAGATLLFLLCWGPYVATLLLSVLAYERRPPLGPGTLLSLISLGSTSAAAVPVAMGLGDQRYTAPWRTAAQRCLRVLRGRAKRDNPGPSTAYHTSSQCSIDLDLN
Description: Mouse TGR5 cAMP production assay (HTRF, Cisbio cAMP HiRange). Format: cell-based. Particulars: HEK293-EBNA cells overexpressing mouse TGR5, HTRF cAMP HiRange; coded A-D.
Text: Mouse TGR5 cAMP Production Assay
We evaluated compounds of the present invention for their ability to induce cAMP production in HEK-EBNA cells overexpressing the mouse TGR5 receptor. Human embryonic kidney cells (HEK293-EBNA) stably expressing mouse TGR5 receptor were established using the following procedure. Specifically, a commercially-obtained gene encoding mouse TGR5 (accession number BC116914) from Thermo Scientific (Waltham, Mass.) was cloned into an episomal expression vector. The resulting expression plasmid was then transfected into 293 c18 (ATCC® CRL10852™) cells, which express the Epstein-Barr virus nuclear antigen EBNA1 and can support the replication of episomal vectors. Selection for the plasmid was maintained with Hygromycin B. Cells were cultured and maintained in DMEM (Sigma; cat #6429) supplemented with 10% Fetal Bovine Serum, 1% penicillin/streptomycin, 2 mM L-alanine L-glutamine (GlutaMax), and 250 μg/mL Hygromycin.
2. HTRF cAMP Production Assay
In this second cAMP production assay, the cAMP production was measured in 384-well low volume plates (Greiner; cat #784075) using the Cisbio™ cAMP HiRange HTRF Assay Kit (Cisbio) according to the manufacturer's protocol.
Briefly, compounds were initially diluted in 100% DMSO (12-point serial dilution by half logs) in a 96-well plate and then were further diluted 1:50 in PBS containing 10 mM HEPES. 5 μL were transferred to the 384-well assay plate in duplicate. HEK293-EBNA cells stably overexpressing mouse TGR5 were harvested using non-enzymatic cell dissociation buffer (Sigma), spun down, then resuspended in serum-free DMEM with 500 μM IBMX at a density of 500,000 cells/mL. 5 μL of cell suspension was transferred to each well of the 384-well assay plate already containing compound. The plate was covered and incubated at room temperature for 1 hour. The d2-cAMP and anti-cAMP Ab-cryptate stock solutions were prepared as per kit instructions. Then 5 μL of each conjugate (d2 and cryptate) were added to each well of the assay plate. The plate was covered and incubated at room temperature for 1 hour. The plate was read on an Envision™ plate reader (Perkin Elmer).
as §1

Consider `Cc1cnccc1-c1cccc([C@H](C)N(CCCC(=O)NCCC(=O)O)S(=O)(=O)c2cccc(Cl)c2C)c1` [Compound 21AH, (S)-3-(4-(3-chloro-2-methyl-N-(1-(3-(3-methylpyridin-4-yl)phenyl)ethyl)phenylsulfonamido)butanamido)propanoic acid], for which the EC50 is under 0.1 µM in assay [1] and 0.1 to 0.999 µM in assay [2].
The corresponding values for `COc1cnccc1-c1cccc(C2CN(C(=O)CS(=O)(=O)O)CCN2S(=O)(=O)c2cccc(Cl)c2C)c1` (stereo not drawn) [Compound 49AF, 2-(4-((3-chloro-2-methylphenyl)sulfonyl)-3-(3-(3-methoxypyridin-4-yl)phenyl)piperazin-1-yl)-2-oxoethanesulfonic acid] are under 0.1 µM and under 0.1 µM.
The corresponding values for `Cc1cnccc1-c1cccc(C(C)N(CCCNc2c(NCCC(=O)O)c(=O)c2=O)S(=O)(=O)c2cccc(Cl)c2C)c1` (stereo not drawn) [Compound 32AB] are 0.1 to 0.999 µM and 0.1 to 0.999 µM.
The corresponding values for `Cc1cnccc1-c1cccc(C2(N(CCCC(=O)O)S(=O)(=O)c3cccc(Cl)c3C)COC2)c1` [Compound 16AL, 4-(3-chloro-2-methyl-N-(3-(3-(3-methylpyridin-4-yl)phenyl)-oxetan-3-yl)phenyl-sulfonamido)butanoic acid] are 0.1 to 0.999 µM and 0.1 to 0.999 µM.
For `Cc1cnccc1-c1cccc([C@H](C)NS(=O)(=O)c2ccccc2N)c1` [Compound 10AA, (S)-2-amino-N-(1-(3-(3-methylpyridin-4-yl)phenyl)ethyl)benzenesulfonamide], the EC50 in assay [1] fell in the range of 0.1 to 0.999 µM; in assay [2] it was 1 to 30 µM.
The corresponding values for `Cc1cnccc1-c1cccc([C@H](CCCC#N)N(CCCC(=O)O)S(=O)(=O)c2cccc(Cl)c2C)c1` [Compound 15AD, (S)-4-(3-chloro-N-(4-cyano-1-(3-(3-methylpyridin-4-yl)phenyl)butyl)-2-methylphenylsulfonamido) butanoic acid] are 0.1 to 0.999 µM and 0.1 to 0.999 µM.
`Cc1cnccc1-c1cccc([C@H](CCCC#N)NS(=O)(=O)c2ccccc2C(F)(F)F)c1` [Compound 5BC, (S)-N-(4-cyano-1-(3-(3-methylpyridin-4-yl)phenyl)-butyl)-2-(trifluoromethyl)benzenesulfonamide]: the EC50 in assay [1] and in assay [2] was under 0.1 µM throughout.
In the case of `CCc1cnccc1-c1cccc([C@H](C)N(CCCC(=O)NCCNS(=O)(=O)NCC(=O)O)S(=O)(=O)c2cccc(Cl)c2C)c1` [Compound 38AA, (S)-2-((N-(2-(4-(3-chloro-N-(1-(3-(3-ethylpyridin-4-yl)phenyl)ethyl)-2-methylphenylsulfonamido)butanamido)ethyl)sulfamoyl)amino)acetic acid], the EC50 in assay [1] and in assay [2] was under 0.1 µM each time.
Turning to `COc1cnccc1-c1cccc(C2CCCN2S(=O)(=O)c2cccc(C(F)(F)F)c2)c1` (stereo not drawn) [Compound 40, 3-methoxy-4-(3-(1-((3-(trifluoromethyl)phenyl)sulfonyl)pyrrolidin-2-yl)phenyl)pyridine], the EC50 was 0.1 to 0.999 µM in assay [1] and 1 to 30 µM in assay [2].
Take `Cc1cnccc1-c1cccc([C@H](C)N(CCCC(=O)NCCNS(=O)(=O)NOC(C)(C)C)S(=O)(=O)c2cccc(Cl)c2C)c1` [Compound 37A]: the EC50 in assay [1] and in assay [2] was under 0.1 µM throughout.
Take `CCc1cnccc1-c1cccc([C@H](C)N(CCCC(=O)NCS(=O)(=O)O)S(=O)(=O)c2cccc(Cl)c2C)c1` [Compound 21AR, (S)-(4-(3-chloro-N-(1-(3-(3-ethylpyridin-4-yl)phenyl)ethyl)-2-methylphenylsulfonamido)butanamido)methanesulfonic acid]: the EC50 in assay [1] and in assay [2] was under 0.1 µM throughout.
As for `Cc1cnccc1-c1cccc(C2CN(C(=O)CCCC(=O)O)CCN2S(=O)(=O)c2cccc(Cl)c2C)c1` (stereo not drawn) [Compound 46AE, 5-(4-((3-chloro-2-methylphenyl)sulfonyl)-3-(3-(3-methylpyridin-4-yl)phenyl)piperazin-1-yl)-5-oxopentanoic acid], the EC50 in assay [1] and in assay [2] was under 0.1 µM throughout.

Usually EC50 stands for the concentration needed to bring the measured effect to its halfway point.
